Experiments:
Format in all cases: in vivo
Setaria viridis = assay: greenhouse pre-emergence treatment, SETVI; details: SETVI
Method in brief: (§1)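 Pre-emergence spray of compounds, alone or as combinations formulated as 10% emulsion concentrate in water, directly after sowing in loamy sand (~3.0% humus); pots hooded until rooting, kept at 10-25° C or 20-35° C per species for 2 to 4 weeks. Damage scored 0-100 (100 = no emergence/complete destruction); Colby expected value E=X+Y−(X·Y/100).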

Galium aparine = assay: greenhouse pre-emergence treatment, GALAP; details: GALAP
Method in brief: as §1

Digitaria sanguinalis = assay: greenhouse pre-emergence treatment, DIGSA; details: DIGSA; for % activity, solo application: 62.5 gai/ha
Method in brief: as §1

Brachiaria decumbens = assay: greenhouse pre-emergence treatment, BRADC; details: BRADC
Method in brief: as §1

Polygonum aviculare = assay: greenhouse post-emergence treatment, POLAV; details: POLAV; for % activity, solo application: Table X4
Method in brief: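 Visual herbicidal effect (0–100) recorded over a 2 to 4 week test period after foliar treatment at plant heights of 3 to 15 cm. Expected combination effects derived by the Colby formula from single-component effects X and Y.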

Lolium perenne = assay: greenhouse post-emergence treatment, LOLPE; details: 20 DAT, 2nd series of rows
Description: The culture containers used were plastic pots containing loamy sand with approximately 3.0% of humus as substrate. The seeds of the test plants were sown separately for each species.
To this end, the test plants were either sown directly, and grown in the same containers, or they were first grown separately as seedlings and transplanted into the test containers a few days prior to treatment.
Depending on the species, the plants were kept at 10-25° C. and 20-35° C., respectively.
The test period extended over 2 to 4 weeks. During this time, the plants were tended and their response to the individual treatments was evaluated.
Evaluation was carried out using a scale from 0 to 100. 100 means no emergence of the plants, or complete destruction of at least the above-ground parts, and 0 means no damage or normal course of growth. A good herbicidal activity is given at values of at least 70, and very good herbicidal activity is given at values of at least 85.
In the examples, the solvent used was water.
In the examples below, using the method of S. R. Colby (1967) “Calculating synergistic and antagonistic responses of herbicide combinations”, Weeds 15, p. […] E=X+Y−(X·Y/100) where X=effect in percent using herbicide A at an application rate a; • Y=effect in percent using herbicide B at application rate b; • E=expected effect (in %) of herbicide A+herbicide B at application rates a+b.

BRAPL = assay: greenhouse pre-emergence treatment, BRAPL; details: Table X9, 21 DAT, solo Ex. 5 125 gai/ha
[1] = solo Ex. 5 31.25 gai/ha, 20 DAT
[2] = Table X9, 21 DAT, solo Ex. 5 125 gai/ha
[3] = Table X13, 20 DAT, solo Ex. 5 31.25 gai/ha
[4] = Table X13, 20 DAT, solo Ex. 5 62.5 gai/ha
[5] = Ex. 5 solo, 62.5 gai/ha, 20 DAT
[6] = 20 DAT, solo Ex. 5 31.25 gai/ha
[7] = Table X13, 20 DAT, solo Ex. 5 125 gai/ha

O=C(O)c1nc(C2CC2)ncc1-c1ccccc1Cl [Ex. 5]
% activity, solo application (Setaria viridis; 31.25 gai/ha, 20 DAT, Table X6): 0%
% activity, solo application (Setaria viridis; 125 gai/ha, 20 DAT, Table X1): 45%
% activity, solo application (Setaria viridis; 125 gai/ha, 20 DAT, Table X2): 60%
% activity, solo application (Setaria viridis; 125 gai/ha, 20 DAT, Table X6): 60%
% activity, solo application (Setaria viridis; 250 gai/ha, 20 DAT, Table X1): 65%
% activity (Setaria viridis; Ex. 5 solo, 125 gai/ha, 20 DAT): 50%
% activity (Setaria viridis; 20 DAT, solo Ex. 5 62.5 gai/ha): 30%
% activity (Setaria viridis; 20 DAT, solo Ex. 5 125 gai/ha): 50%
% activity (Setaria viridis; [1]): 35%
% activity (Setaria viridis; solo Ex. 5 125 gai/ha, 20 DAT): 45%
% activity (Setaria viridis; [2]): 50%
% activity (Setaria viridis; [3]): 20%
% activity (Setaria viridis; [4]): 35%
% activity (Setaria viridis; solo, 31.25 gai/ha, 20 DAT): 10%
% activity (Setaria viridis; solo, 62.5 gai/ha, 21 DAT): 45%
% activity (Setaria viridis; solo, 125 gai/ha, 20 DAT): 45%
% activity (Setaria viridis; solo, 125 gai/ha, 21 DAT): 60%
% activity (Setaria viridis; solo, 250 gai/ha, 21 DAT): 65%
% activity, solo application (Galium aparine; 62.5 gai/ha, 20 DAT, Table X1): 0%
% activity, solo application (Galium aparine; 62.5 gai/ha, 20 DAT, Table X2): 0%
% activity, solo application (Galium aparine; 62.5 gai/ha, 20 DAT, Table X6): 0%
% activity, solo application (Galium aparine; 125 gai/ha, 20 DAT, Table X2): 40%
% activity (Galium aparine; [5]): 0%
% activity (Galium aparine; Ex. 5 solo, 125 gai/ha, 20 DAT): 0%
% activity (Galium aparine; [6]): 0%
% activity (Galium aparine; 20 DAT, solo Ex. 5 62.5 gai/ha): 0%
% activity (Galium aparine; 20 DAT, solo Ex. 5 125 gai/ha): 0%
% activity (Galium aparine; [1]): 0%
% activity (Galium aparine; solo Ex. 5 62.5 gai/ha, 20 DAT): 0%
% activity (Galium aparine; solo Ex. 5 125 gai/ha, 20 DAT): 0%
% activity (Galium aparine; [2]): 0%
% activity (Galium aparine; Table X9, 21 DAT, solo Ex. 5 250 gai/ha): 0%
% activity (Galium aparine; Table X10, 20 DAT, solo Ex. 5 62.5 gai/ha): 0%
% activity (Galium aparine; Table X10, 20 DAT, solo Ex. 5 125 gai/ha): 20%
% activity (Galium aparine; Table X10, 20 DAT, solo Ex. 5 250 gai/ha): 35%
% activity (Galium aparine; Table X11, 20 DAT, solo Ex. 5 62.5 gai/ha): 0%
% activity (Galium aparine; Table X11, 20 DAT, solo Ex. 5 125 gai/ha): 0%
% activity (Galium aparine; [4]): 20%
% activity (Galium aparine; [7]): 35%
% activity (Galium aparine; solo, 31.25 gai/ha, 20 DAT): 0%
% activity (Galium aparine; solo, 62.5 gai/ha, 20 DAT): 0%
% activity (Galium aparine; solo, 125 gai/ha, 20 DAT): 0%
% activity (Galium aparine; solo, 250 gai/ha, 21 DAT): 25%
% activity, solo application (Digitaria sanguinalis; 20 DAT, Table X2): 65%
% activity, solo application (Digitaria sanguinalis; 20 DAT, Table X6): 65%
% activity (Digitaria sanguinalis; [6]): 40%
% activity (Digitaria sanguinalis; [2]): 90%
% activity (Digitaria sanguinalis; [7]): 90%
% activity (Digitaria sanguinalis; solo, 31.25 gai/ha, 20 DAT): 65%
% activity (Digitaria sanguinalis; solo, 125 gai/ha, 21 DAT): 60%
% activity (Digitaria sanguinalis; solo, 250 gai/ha, 21 DAT): 65%
% activity, solo application (Brachiaria decumbens; 62.5 gai/ha, 20 DAT, Table X2): 80%
% activity, solo application (Brachiaria decumbens; 125 gai/ha, 20 DAT, Table X6): 95%
% activity (Brachiaria decumbens; [6]): 20%
% activity (Brachiaria decumbens; 20 DAT, solo Ex. 5 62.5 gai/ha): 60%
% activity (Brachiaria decumbens; 20 DAT, solo Ex. 5 125 gai/ha): 70%
% activity (Brachiaria decumbens; [5]): 60%
% activity (Brachiaria decumbens; Ex. 5 solo, 125 gai/ha, 20 DAT): 70%
% activity (Brachiaria decumbens; [3]): 85%
% activity (Brachiaria decumbens; solo, 31.25 gai/ha, 20 DAT): 55%
% activity (Brachiaria decumbens; solo, 62.5 gai/ha, 20 DAT): 85%
% activity, solo application (Polygonum aviculare; 125 gai/ha, 20 DAT): 95%
% activity, solo application (Polygonum aviculare; 250 gai/ha, 20 DAT): 95%
% activity (Polygonum aviculare; Ex. 5 solo, 62.5 gai/ha, 21 DAT): 90%
% activity (Polygonum aviculare; 20 DAT, solo Ex. 5 62.5 gai/ha): 90%
% activity (Polygonum aviculare; 20 DAT, solo Ex. 5 125 gai/ha): 90%
% activity (Polygonum aviculare; 20 DAT, solo Ex. 5 125 gai/ha (Table X66)): 90%
% activity (Lolium perenne; solo Ex. 5 15 gai/ha): 85%
% activity (Lolium perenne; solo Ex. 5 62.5 gai/ha): 80%
% activity (Lolium perenne; solo Ex. 5 250 gai/ha): 85%
% activity (Lolium perenne; solo Ex. 5 500 gai/ha): 85%
% activity (BRAPL): 90%

From patent US10966426B2, “Herbicidal compositions comprising phenylpyrimidines” (BASF SE, priority 2016, dated 2021)
